System: α7 integrin promoter
Assay: muscle cell-based assay: α7βgal+/− myoblasts/myotubes, LacZ reporter, β-galactosidase cleavage of FDG
Parameters: species or system mouse; Results in α7+/− β-galactosidase assay: scale not given here
Conditions: for Results in a α7+/− β-galactosidase assay, Myotubes, 0.5 uM: compound at 0.5 uM; for Results in a α7+/− β-galactosidase assay, Myotubes, 1 uM: compound at 1 uM; for Results in a α7+/− β-galactosidase assay, Myotubes, 5 uM: compound at 5 uM; for Results in a α7+/− β-galactosidase assay, Myotubes, 10 uM: compound at 10 uM; for Results in a α7+/− β-galactosidase assay, Myotubes, 20 uM: compound at 20 uM; for Results in a α7+/− β-galactosidase assay, Myotubes, 40 uM: compound at 40 uM; for AC50 / Emax / EC50: Mus musculus; for AC50: log of AC50, given with negative sign, unit of AC50 not given, read-out: Fit Log AC50 (converted); for Emax: read-out: Max Response [%]; for Fit Curve Class: key not given; for EC50: given as log AC50 (negative values), read-out: Fit LogAC50 (converted); for Results in α7+/− β-galactosidase assay / Result in α7+/− β-galactosidase assay: Myoblasts
Outline: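 Fluorescein generated from FDG by β-galactosidase reports α7 integrin promoter activity in differentiated myoblasts from α7+/− LacZ knock-in pups. Screening hits then went to dose-response, western blotting and a myostatin counterscreen.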

[1] = Table 12, fitted activity at zero concentration
[2] = Table 12 Compound data, concentration-response curve fit
[3] = curve fit, activity at zero concentration

SMILES | Results in a α7+/− β-galactosidase assay, Myotubes, 0.5 uM | Results in a α7+/− β-galactosidase assay, Myotubes, 1 uM | Results in a α7+/− β-galactosidase assay, Myotubes, 5 uM | Results in a α7+/− β-galactosidase assay, Myotubes, 10 uM | Results in a α7+/− β-galactosidase assay, Myotubes, 20 uM | Results in a α7+/− β-galactosidase assay, Myotubes, 40 uM | AC50 (Table 12) | Fit HillSlope (Table 12, curve fit) | Fit Zero Activity [%] [1] | Fit Curve Class (Table 12) | Score [2] | also measured
CC(NC(=O)c1ccc(C(C)(C)C)cc1)C(c1cccs1)N1CCOCC1 (stereo not shown) [drawing 402] | 0.08612 | 0.07635 | 0.06551 | 0.1287 | −0.144 | −0.1386 |  |  |  |  |  | 
COc1ccc(S(=O)(=O)N(NC2=NS(=O)(=O)c3ccccc32)C(=O)C(C)C)cc1 [Compound 37] |  |  |  |  |  |  | 2.51 µM | 2.4064 | −2.5935% | 1.2 | 64 | Emax: 72.9%
COC(=O)C1SCC2C(=O)N(Cc3ccc(F)cc3)CC(=O)N21 (stereo not shown) [Compound 187] |  |  |  |  |  |  |  |  |  |  |  | EC50: 8.91 µM; Score (Table 12 compound data): 42; Fit Curve Class (curve class number): 2.1; Fit HillSlope (curve fit): 1.3437; Fit Zero Activity [%] [3]: −54.3669%
O=C(NCCc1ccccc1)C1CCC(=O)N1C1CCCC1 (stereo not shown) [Compound 104] |  |  |  |  |  |  | 10 µM | 3.6772 | −9.1182% | 2.1 | 43 | 
O=C(O)c1csc(-c2cccs2)n1 [drawing 570] |  |  |  |  |  |  |  |  |  |  |  | Results in α7+/− β-galactosidase assay (0.5 uM): 0.0287; Results in α7+/− β-galactosidase assay (1 uM): −0.01442; Results in α7+/− β-galactosidase assay (5 uM): 0.8119; Results in α7+/− β-galactosidase assay (10 uM): −0.08869; Results in α7+/− β-galactosidase assay (20 uM): 0.1022; Results in α7+/− β-galactosidase assay (40 uM): −0.04959
Cc1ccccc1-n1c(S)nnc1Cc1cccs1 [drawing 520] |  |  |  |  |  |  |  |  |  |  |  | Results in α7+/− β-galactosidase assay (0.5 uM): 0.09422; Results in α7+/− β-galactosidase assay (1 uM): 0.03188; Results in α7+/− β-galactosidase assay (5 uM): 0.1364; Results in α7+/− β-galactosidase assay (10 uM): 0.3732; Results in α7+/− β-galactosidase assay (20 uM): 0.1056; Results in α7+/− β-galactosidase assay (40 uM): 0.01115
CN(CC(=O)Nc1cccc(F)c1)C(=O)c1ccc(-c2ccc(Cl)cc2)o1 [Compound 90] |  |  |  |  |  |  | 11.2 µM | 4.5045 | 5.7331% | 2.1 | 43 | 
CC(C(=O)Nc1ccc(C#N)cc1)N(C)CC(=O)Nc1cccc(F)c1 (stereo not shown) [drawing 421] | 0.03075 | −0.03964 | −0.1345 | 0.2992 | −0.138 | 0.2085 |  |  |  |  |  | 
COC(=O)Cn1c(=O)c2c(nc3n2CC(C)CN3Cc2ccccc2)n(C)c1=O (stereo not shown) [drawing 415] | 0.05467 | 0.04855 | −0.1372 | −0.2301 | 0.01742 | −0.09631 |  |  |  |  |  | 
COc1ccc(CNC(=O)COC(=O)CCc2c[nH]c3ccccc23)cc1 [Compound 184] |  |  |  |  |  |  |  |  |  |  |  | EC50: 10 µM; Score (Table 12 compound data): 42; Fit Curve Class (curve class number): 2.1; Fit HillSlope (curve fit): 2.9023; Fit Zero Activity [%] [3]: −0.6011%
O=C1SC(Cc2ccccc2)C(=O)N1c1ccccc1 (stereo not shown) [Compound 50] |  |  |  |  |  |  | 7.94 µM | 1.8851 | 5.0579% | 2.1 | 46 | Emax: 176%
CCC(CC)C(=O)Nc1c(C(=O)N2CCN(c3ccccc3)CC2)oc2ccccc12 [drawing 479] | −0.04763 | −0.04983 | −0.2904 | −0.3853 | −0.08708 | −0.02043 |  |  |  |  |  | 
CC(=O)C1=C(C)Nc2ncnn2C1c1ccc(C)cc1 (stereo not shown) [drawing 447] | 0.06012 | −0.01856 | 0.152 | −0.155 | −0.1763 | −0.08699 |  |  |  |  |  | 
CCOc1ccc(NC(=O)CN2C(=O)NC(CCSC)C2=O)cc1 (stereo not shown) [Compound 180] |  |  |  |  |  |  |  |  |  |  |  | EC50: 10 µM; Score (Table 12 compound data): 42; Fit Curve Class (curve class number): 2.2; Fit HillSlope (curve fit): 3.1925; Fit Zero Activity [%] [3]: −1.6238%
COc1cc(C(C(=O)NC2CCCCC2)N(C(=O)c2snc(C(N)=O)c2N)c2ccc(C)cc2)ccc1O (stereo not shown) [Compound 71] |  |  |  |  |  |  | 7.94 µM | 1.3443 | −2.1806% | 2.1 | 44 | 
Cc1cc(-c2ccccc2)n2nc(N)nc2n1 [Compound 127] |  |  |  |  |  |  |  |  |  |  |  | EC50: 12.6 µM; Score (Table 12 compound data): 43; Fit Curve Class (curve class number): 2.1; Fit HillSlope (curve fit): 4.5045; Fit Zero Activity [%] [3]: −18.9102%
O=c1c2cc(-c3ccccc3)sc2nc2n1N=C(c1ccccc1)CS2 [drawing 693] |  |  |  |  |  |  |  |  |  |  |  | Results in α7+/− β-galactosidase assay (0.5 uM): −0.04703; Results in α7+/− β-galactosidase assay (1 uM): −0.001; Results in α7+/− β-galactosidase assay (5 uM): 0.1857; Results in α7+/− β-galactosidase assay (10 uM): 0.01009; Results in α7+/− β-galactosidase assay (20 uM): 0.0113; Results in α7+/− β-galactosidase assay (40 uM): 0.00476
CCOc1ccccc1NC(=O)c1cccc2c1C(=O)N(C1CCCCC1)C2 [drawing 707] |  |  |  |  |  |  |  |  |  |  |  | Result in α7+/− β-galactosidase assay (0.5 uM): 0.2793; Result in α7+/− β-galactosidase assay (1 uM): 0.1772; Result in α7+/− β-galactosidase assay (5 uM): −0.01616; Result in α7+/− β-galactosidase assay (10 uM): 0.02001; Result in α7+/− β-galactosidase assay (20 uM): 0.1258; Result in α7+/− β-galactosidase assay (40 uM): 0.02179
O=C1Cc2ccccc2/C1=C\c1ccc([N+](=O)[O-])cc1 [drawing 495] | −0.06418 | −0.0268 | −0.312 | 0.004591 | −0.246 | −0.2389 |  |  |  |  |  | 
CC1(C)Cc2ccccc2-c2nc3n(c(=O)c21)CCS3 [drawing 588] |  |  |  |  |  |  |  |  |  |  |  | Results in α7+/− β-galactosidase assay (0.5 uM): 0.2141; Results in α7+/− β-galactosidase assay (1 uM): 0.0159; Results in α7+/− β-galactosidase assay (5 uM): 0.02034; Results in α7+/− β-galactosidase assay (10 uM): 0.02377; Results in α7+/− β-galactosidase assay (20 uM): −0.2051; Results in α7+/− β-galactosidase assay (40 uM): −0.4207
CN(C)S(=O)(=O)c1ccc(C(=O)Nc2nc3ccccc3[nH]2)cc1 [Compound 116] |  |  |  |  |  |  | 8.91 µM | 1.5579 | −9.8246% | 2.1 | 43 | 
NC(=O)c1sc2nc3c(cc2c1N)CCC3 [drawing 400] | −0.1099 | −0.1307 | −0.1528 | 0.5381 | 0.07998 | 0.08496 |  |  |  |  |  | 
COc1cccc(CN2CCN(Cc3ccco3)CC2)c1.O=C(O)C(=O)O [drawing 322] | 0.1434 | 0.2622 | 0.003264 | −0.05758 | −0.1598 | −0.2345 |  |  |  |  |  | 
CCOc1ccc(S(=O)(=O)NCCC(=O)NCC(c2cccs2)N2CCOCC2)cc1 (stereo not shown) [Compound 14] |  |  |  |  |  |  | 2.24 µM | 2.3332 | −21.9345% | 1.1 | 84 | Emax: 61.7%
CC(=O)Nc1ccc(NC(=O)C/C(C)=N/NC(=O)COc2cc(C)c(Br)cc2Br)cc1 [drawing 449] | −0.08286 | −0.1235 | −0.2507 | −0.3124 | −0.1128 | −0.2976 |  |  |  |  |  | 
O=C(Nc1ccc(Oc2cccnc2)cc1)c1ccccc1Cl [Compound 215] |  |  |  |  |  |  |  |  |  |  |  | EC50: 10 µM; Score (Table 12 compound data): 42; Fit Curve Class (curve class number): 2.1; Fit HillSlope (curve fit): 2.1211; Fit Zero Activity [%] [3]: 13.9023%
CCS(=O)(=O)N1CCCC(C(=O)c2ccc(OC)cc2C)C1 (stereo not shown) [Compound 83] |  |  |  |  |  |  | 11.2 µM | 2.0937 | −12.9886% | 2.1 | 44 | 
CC(C(=O)Nc1ccc(C#N)cc1)N(C)CC(=O)Nc1cccc(F)c1 (stereo not shown) [drawing 629] |  |  |  |  |  |  |  |  |  |  |  | Results in α7+/− β-galactosidase assay (0.5 uM): −0.05058; Results in α7+/− β-galactosidase assay (1 uM): −0.1543; Results in α7+/− β-galactosidase assay (5 uM): −0.4207; Results in α7+/− β-galactosidase assay (10 uM): −0.5078; Results in α7+/− β-galactosidase assay (20 uM): −0.8278; Results in α7+/− β-galactosidase assay (40 uM): −0.7653
COc1ccccc1C(=O)NCCOc1ccc(C(C)(C)C)cc1 [Compound 168] |  |  |  |  |  |  |  |  |  |  |  | EC50: 8.91 µM; Score (Table 12 compound data): 42; Fit Curve Class (curve class number): 2.2; Fit HillSlope (curve fit): 1.9673; Fit Zero Activity [%] [3]: −0.7805%
CC(=O)Nc1ccc(NC(=O)[C@@H](NC(=O)c2cccc(C)c2)C(C)C)cc1 [Compound 47] |  |  |  |  |  |  | 5.62 µM | 1.331 | 12.5272% | 2.1 | 46 | Emax: 142%

From patent US10028992B2, “Methods of treating muscular dystrophy” (BOARD OF REGENTS OF THE NEVADA SYSTEM OF HIGHER EDUCATION …, priority 2012, dated 2018)
